Patent US6551998B1, “Antimicrobial agents” (University of Louisville Research Foundation, Inc., priority 1999, dated 2003)
Converted amounts (≈) assume the structure as drawn. Like-named read-outs stand apart in the source and are kept apart here. Square brackets hold non-standard residues; d marks the D form. 2Nal = N[C@@H](Cc1ccc2ccccc2c1)C(=O)O

What was measured:
[1] = tested on: Pseudomonas aeruginosa (ATCC27853); format: cell-based; details: for Ps A. IC50: Table 4; for activity against Pseudomonas aeruginosa (in words): gram negative organism
Procedure: (§1) The antimicrobial compounds of the present invention were assayed using a standard microdilution assay against gram-positive bacteria Staphylococcus aureus (strain used: ATTC 29213) and methicillin-resistant strain used ATCC 33591) and the gram-negative bacteria Pseudomonas aeruginosa (strain used ATCC27853). The samples were assayed against 1-5×10^5 colony forming units, in Mueller-Hinton broth, at 37° C. The activity was determined following a 21 hour incubation. The IC50 values were calculated using sigmoidal curve fitting software. (Graphpad™, ISI Software, San Diego, Calif.) and correspond to the sample concentration which inhibits 50 percent of bacterial growth. The minimum inhibitory concenttration (MIC) is defined as the lowest concentration of sample at which no growth is detected by optical density between

[2] = tested on: Methicillin resistant Staphylococcus aureus (ATCC 33591); format: cell-based; details: for MRSA IC50: Table 4; for activity against MRSA (in words): gram-positive organism; for IC50 / MIC: ATCC 33591; for selectivity between MRSA and P. aeruginosa (in words): comparison of the MRSA and Ps A. IC50 of Table 4
Procedure: as §1

[3] = Table 2, Mueller-Hinton broth, 37° C., 21 hour incubation, 50 percent inhibition of bacterial growth
[4] = Table 2, lowest concentration at which no growth is detected, 21 hour incubation

Molecule | Ps A. IC50 [1] | MRSA IC50 [2] | IC50 [2] | MIC [2] | further results
H-2-Nalψ[CH2NAc]Lys-Ser-Pheψ[CH2NH]Leu-OH [Compound 23] | 33.5 µg/mL | 19.6 µg/mL | – | – | activity against Pseudomonas aeruginosa (in words) [1]: active against both; activity against MRSA (in words) [2]: active against both
CC[C@H](C)[C@H](NC[C@@H](N)Cc1ccc2ccccc2c1)C(=O)N[C@H](C(=O)N[C@H](CN[C@@H](CC(C)C)C(=O)O)Cc1ccccc1)C(C)C [Compound 8, H-2-Nalψ[CH2NH]Ile-Val-Pheψ[CH2NH]Leu-OH] | – | – | 5 µg/mL (≈ 7.58 µM) | 8 to 16 µg/mL | –
CCC(CC)(NC(=O)[C@H](CCCCN)NC[C@@H](N)Cc1ccc2ccccc2c1)C(=O)N[C@H](CN[C@@H](CC(C)C)C(=O)O)Cc1ccccc1 [Compound 19, H-2-Nalψ[CH2NH]Lys-Deg-Pheψ[CH2NH]Leu-OH] | – | – | 67 µg/mL (≈ 97.2 µM) | 125 to 250 µg/mL | IC50 ([1]; ATCC27853, 21 h): 143 µg/mL (≈ 208 µM); MIC ([1]; ATCC27853, 21 h): 250 to 500 µg/mL
CSCC[C@H](NC[C@@H](N)Cc1ccc2ccccc2c1)C(=O)N[C@@H](Cc1ccccc1)C(=O)N[C@H](CN[C@@H](CC(C)C)C(=O)O)Cc1ccccc1 [Compound 6, H-2-Nalψ[CH2NH]Met-Phe-Pheψ[CH2NH]Leu-OH] | – | – | 44 µg/mL (≈ 60.6 µM) | 125 to 250 µg/mL | –
CC[C@H](C)[C@H](NC[C@@H](N)Cc1ccc2ccccc2c1)C(=O)NC(C)(C)C(=O)N[C@H](CN[C@@H](CC(C)C)C(=O)O)Cc1ccccc1 [Compound 15, H-2-Nalψ[CH2NH]Ile-Aib-Pheψ[CH2NH]Leu-OH] | – | – | 39 µg/mL (≈ 60.4 µM) | 80 to 125 µg/mL | –
H-D-2-Nalψ[CH2NH]Lys-Ser-Pheψ[CH2NH]Leu-OH [Compound 22] | 9.2 µg/mL | 10.9 µg/mL | – | – | activity against Pseudomonas aeruginosa (in words) [1]: active against both; activity against MRSA (in words) [2]: active against both
CCC(CC)(NC(=O)[C@H](CCSC)NC[C@@H](N)Cc1ccc2ccccc2c1)C(=O)N[C@H](CN[C@@H](CC(C)C)C(=O)O)Cc1ccccc1 [Compound 20, H-Nalψ[CH2NH]Met-Deg-Pheψ[CH2NH]Leu-OH] | – | – | 5 µg/mL (≈ 7.23 µM) | 16 to 32 µg/mL | IC50 ([1]; ATCC27853, 21 h): 64 µg/mL (≈ 92.5 µM); MIC ([1]; ATCC27853, 21 h): 80 to 125 µg/mL; activity against Pseudomonas aeruginosa (in words) [1]: good potency
H-D-2-Nalψ[CH2NH]D-Lys-D-Ser-D-Pheψ[CH2NH]D-Leu-OH [Compound 29] | 13.9 µg/mL | 18.8 µg/mL | – | – | selectivity between MRSA and P. aeruginosa (in words) [2]: slight selectivity for the gram-negative organisms
4-AMBψ[CH2NH]Lys-Ser-4-AMBψ[CH2NH]Leu-OH [Compound 38] | > 500 µg/mL | > 500 µg/mL | – | – | –
CC(C)C[C@H](NC[C@H](Cc1ccccc1)NC(=O)[C@H](CO)NC(=O)[C@H](CCCCN)NC[C@@H](N)Cc1ccc2ccccc2c1)C(=O)O [Compound 1, H-2-Nal ψ[CH2NH]Lys-Ser-Pheψ[CH2NH]Leu-OH] | – | – | 3 µg/mL (≈ 4.53 µM) | 8 to 16 µg/mL | IC50 [1, 3]: 10 µg/mL (≈ 15.1 µM); MIC [1, 4]: 16 to 32 µg/mL; activity against MRSA (in words) [2]: most active
CC(C)C[C@H](NC[C@H](Cc1ccccc1)NC(=O)[C@H](Cc1ccccc1)NC(=O)[C@H](CCCCN)NC[C@@H](N)Cc1ccc2ccccc2c1)C(=O)O [Compound 3, H-2-Nalψ[CH2NH]Lys-Phe-Pheψ[CH2NH]Leu-OH] | – | – | 19 µg/mL (≈ 26.3 µM) | 125 to 150 µg/mL | IC50 ([1]; ATCC27853, 21 h): 31 µg/mL (≈ 42.9 µM); MIC ([1]; ATCC27853, 21 h): 40 to 62 µg/mL
H-2-Nalψ[CH2NAc]Met-Aib-Pheψ[CH2NH]Leu-OH [Compound 25] | > 500 µg/mL | 28.7 µg/mL | – | – | selectivity between MRSA and P. aeruginosa (in words) [2]: very selective; activity against MRSA (in words) [2]: quite active
CC[C@H](C)[C@H](NC[C@@H](N)Cc1ccc2ccccc2c1)C(=O)N[C@@H](CO)C(=O)N[C@H](CN[C@@H](CC(C)C)C(=O)O)Cc1ccccc1 [Compound 7, H-2-Nalψ[CH2NH]Ile-Ser-Pheψ[CH2NH]Leu-OH] | – | – | 69 µg/mL (≈ 107 µM) | 125 to 250 µg/mL | –
H-2-Nalψ[CH2NH]Nle-Aib-Pheψ[CH2NH]Leu-OH [Compound 32] | > 500 µg/mL | 35 µg/mL | – | – | –
H-2-Nalψ[CH2NH]Lys-Ser-Pheψ[CH2NAc]Leu-OH [Compound 30] | 50 µg/mL | 26 µg/mL | – | – | –
H-2-Nal-Lys-Ser-Phe-Leu-OH (H-[2Nal]KSFL-OH; SMILES CC(C)C[C@H](NC(=O)[C@H](Cc1ccccc1)NC(=O)[C@H](CO)NC(=O)[C@H](CCCCN)NC(=O)[C@@H](N)Cc1ccc2ccccc2c1)C(=O)O) [Compound 26] | 388 µg/mL | 184 µg/mL | – | – | activity against Pseudomonas aeruginosa (in words) [1]: modest activity in both assays; activity against MRSA (in words) [2]: modest activity in both assays

Molecule | Ps A. IC50 [1] | MRSA IC50 [2] | IC50 [2] | MIC [2] | further results
H-2-Nalψ[CH2NH]Lys(Ac)-Ser-Pheψ[CH2NH]Leu-OH [Compound 28] | 190 µg/mL | 25.8 µg/mL | – | – | –
CCC(CC)(NC[C@@H](N)Cc1ccc2ccccc2c1)C(=O)N[C@@H](Cc1ccccc1)C(=O)N[C@H](CN[C@@H](CC(C)C)C(=O)O)Cc1ccccc1 [Compound 18, H-2-Nalψ[CH2NH]Deg-Phe-Pheψ[CH2NH]Leu-OH] | – | – | 6 µg/mL (≈ 8.48 µM) | 16 to 32 µg/mL | –
H-2-Nalψ[CH2NH]Met-3-AMB-Pheψ[CH2NH]Leu-OH [Compound 34] | 230 µg/mL | 47 µg/mL | – | – | –
CCC(CC)(NC[C@@H](N)Cc1ccc2ccccc2c1)C(=O)N[C@@H](CO)C(=O)N[C@H](CN[C@@H](CC(C)C)C(=O)O)Cc1ccccc1 [Compound 16, H-2-Nalψ[CH2NH]Deg-Ser-Pheψ[CH2NH]Leu-OH] | – | – | 17 µg/mL (≈ 26.2 µM) | 62 to 125 µg/mL | IC50 [1, 3]: 170 µg/mL (≈ 262 µM); MIC [1, 4]: > 250 µg/mL
Ac-2-Nalψ[CH2NH]Lys-Ser-Pheψ[CH2NH]Leu-OH [Compound 24] | 180 µg/mL | 60 µg/mL | – | – | –
CC(C)C[C@H](NC[C@H](Cc1ccccc1)NC(=O)[C@H](Cc1ccccc1)NC(=O)C(C)(C)NC[C@@H](N)Cc1ccc2ccccc2c1)C(=O)O [Compound 12, H-2-Nalψ[CH2NH]Aib-Phe-Pheψ[CH2NH]Leu-OH] | – | – | 26 µg/mL (≈ 38.2 µM) | 125 to 250 µg/mL | –
H-2-Nalψ[CH2NH]Lys-Ser-4-AMBψ[CH2NH]Leu-OH [Compound 36] | 32.2 µg/mL | 37.5 µg/mL | – | – | –
CC[C@H](C)[C@H](NC[C@@H](N)Cc1ccc2ccccc2c1)C(=O)N[C@@H](Cc1ccccc1)C(=O)N[C@H](CN[C@@H](CC(C)C)C(=O)O)Cc1ccccc1 [Compound 9, H-Nalψ[CH2NH]Ile-Phe-Pheψ[CH2NH]Leu-OH] | – | – | 9 µg/mL (≈ 12.7 µM) | 16 to 32 µg/mL | –
4-AMBψ[CH2NH]Lys-Ser-Pheψ[CH2NH]Leu-OH [Compound 37] | 415 µg/mL | > 500 µg/mL | – | – | –
CC[C@H](C)[C@H](NC[C@@H](N)Cc1ccc2ccccc2c1)C(=O)NC(CC)(CC)C(=O)N[C@H](CN[C@@H](CC(C)C)C(=O)O)Cc1ccccc1 [Compound 21, H-2-Nalψ[CH2NH]Ile-Deg-Pheψ[CH2NH]Leu-OH] | – | – | 34 µg/mL (≈ 50.4 µM) | 40 to 162 µg/mL | –
H-D-2-Nalψ[CH2NH]D-Met-Aib-D-Pheψ[CH2NH]D-Leu-OH [Compound 35] | 463 µg/mL | 42.1 µg/mL | – | – | –
H-2-Nalψ[CH2NH]Met-Aib-Pheψ[CH2NH]Leu-NH2 [Compound 31] | 94 µg/mL | 10.4 µg/mL | – | – | –
CC(C)C[C@H](NC[C@H](Cc1ccccc1)NC(=O)C(C)(C)NC(=O)[C@H](CCCCN)NC[C@@H](N)Cc1ccc2ccccc2c1)C(=O)O [Compound 13, H-2-Nalψ[CH2NH]Lys-Aib-Pheψ[CH2NH]Leu-OH] | – | – | 54 µg/mL (≈ 81.7 µM) | 125 to 250 µg/mL | IC50 ([1]; ATCC27853, 21 h): 59 µg/mL (≈ 89.3 µM); MIC ([1]; ATCC27853, 21 h): 80 to 125 µg/mL; activity against Pseudomonas aeruginosa (in words) [1]: good potency
H-2-Nalψ[CH2NH]Met-4-AMB-Pheψ[CH2NH]Leu-OH [Compound 33] | 163 µg/mL | 17.6 µg/mL | – | – | selectivity between MRSA and P. aeruginosa (in words) [2]: quite selective toward MRSA
H-2-Nalψ[CH2NH]Lys-Ser-Phe-Leu-OH (H-[2Nal]KSFL-OH; also: ψ[CH2NH] reduced bond between 2-Nal1 and Lys2) [Compound 27] | 65.4 µg/mL | 37.8 µg/mL | – | – | –
